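Values below derive from 48-hour exposures of cells grown in 96-well plates, with endpoints linearly interpolated between the two concentrations bracketing the appropriate inhibition level. GI50: concentration for 50% inhibition of growth. TGI is the concentration that stops growth completely.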
Assays:
Test in all cases: NCI anticancer screen, dose series, 48 h
[1] = tested on: SF-295 CNS
[2] = tested on: SK-MEL-28 melanoma
[3] = tested on: MALME-3M melanoma
[4] = tested on: EKVX NSCLC
[5] = tested on: HOP-92 NSCLC
[6] = tested on: SF-539 CNS
[7] = tested on: IGROV1 ovarian
[8] = tested on: LOX IMVI melanoma
[9] = tested on: HCC-2998 colon
[10] = tested on: CAKI-1 renal
[11] = tested on: HS 578T breast
[12] = tested on: UACC-62 melanoma
[13] = tested on: SK-MEL-5 melanoma

How did the TGI [1] turn out when `COc1cc(Cc2ccc3c(c2C#N)N(C)c2ccccc2S3)cc(OC)c1OC` was run?
Its TGI is greater than 100 µM.

And the TGI [2]?
Its TGI is greater than 100 µM.

And the TGI [3]?
The TGI was greater than 100 µM.

And the TGI [4]?
Its TGI is greater than 100 µM.

And the TGI [5]?
The TGI was greater than 100 µM.

What about the TGI [6] of the same compound?
The TGI was 42.7 µM.

And the TGI [7]?
Its TGI is greater than 100 µM.

What about the TGI [8] of the same compound?
The TGI was greater than 100 µM.

Which results are given for `CCOC(=O)/C(=N/Nc1ccc(Cl)cc1)N1C(=S)C=C(C)NN(C)C1=S`?
TGI [9]: > 100 µM; TGI [1]: 42.3 µM; TGI [2]: > 100 µM; TGI [10]: > 100 µM; TGI [4]: 73 µM; TGI [11]: > 100 µM; TGI [5]: > 100 µM; TGI [6]: > 100 µM; TGI [7]: > 100 µM; TGI [12]: 90.6 µM; TGI [13]: > 100 µM

`COc1cc2nc(N3CCC[C@@H](NC4=CC(=O)c5ccccc5C4=O)C3)nc(N)c2cc1OC` was tested. Which GI50 [9] did it give?
The GI50 was 1.85 µM.

What about the TGI [9] of the same compound?
Its TGI is 3.3 µM.

And the GI50 [2]?
The GI50 was 1.72 µM.

And the TGI [2]?
Its TGI is 3.39 µM.

And the GI50 [10]?
Its GI50 is 2.02 µM.

And the TGI [10]?
The TGI was 4.12 µM.

And the GI50 [11]?
The GI50 was 2.14 µM.

And the TGI [11]?
Its TGI is 4.95 µM.

What about the GI50 [12] of the same compound?
Its GI50 is 2.01 µM.

And the TGI [12]?
The TGI was 4.25 µM.

What about the GI50 [13] of the same compound?
The GI50 was 1.77 µM.

And the TGI [13]?
Its TGI is 3.44 µM.

Which TGI [9] does the source give for `CCOC(=O)C(=O)Nc1cccc(C)c1C` here?
The TGI was greater than 100 µM.

What about the TGI [1] of the same compound?
The TGI was greater than 100 µM.

What about the TGI [2] of the same compound?
Its TGI is greater than 100 µM.

What about the TGI [3] of the same compound?
Its TGI is greater than 100 µM.

And the TGI [10]?
The TGI was greater than 100 µM.

What about the TGI [4] of the same compound?
Its TGI is greater than 100 µM.

What about the TGI [5] of the same compound?
Its TGI is greater than 100 µM.

What about the TGI [6] of the same compound?
Its TGI is greater than 100 µM.

What about the TGI [7] of the same compound?
Its TGI is greater than 100 µM.

And the TGI [12]?
The TGI was greater than 100 µM.

What about the TGI [13] of the same compound?
Its TGI is greater than 100 µM.

Which TGI [9] does the source give for `COc1cc(C2S/C(=C/c3ccccc3)C(=O)N2c2ccccc2Cl)cc(OC)c1OC` (configuration not stated) here?
The TGI was greater than 100 µM.

What about the TGI [1] of the same compound?
The TGI was greater than 100 µM.

And the TGI [2]?
The TGI was greater than 100 µM.

And the TGI [3]?
The TGI was 82.1 µM.

And the TGI [10]?
Its TGI is greater than 100 µM.

And the TGI [4]?
The TGI was 50.8 µM.

And the TGI [11]?
The TGI was 47.5 µM.

And the TGI [5]?
Its TGI is greater than 100 µM.

What about the TGI [8] of the same compound?
The TGI was 44.9 µM.

What about the TGI [12] of the same compound?
The TGI was greater than 100 µM.

And the TGI [13]?
Its TGI is 75.1 µM.

`COC(=O)C1=C(O)C(C(=O)OC)[C@@]2(O)[C@@H](C(=O)OC)CC[C@@H]1[C@@H]2C(=O)OC` (some centres not stated) was tested. Which TGI [9] did it give?
The TGI was 32.2 µM.

And the TGI [2]?
The TGI was greater than 100 µM.

And the TGI [3]?
Its TGI is 74.3 µM.

And the TGI [4]?
The TGI was 85.7 µM.

What about the TGI [11] of the same compound?
The TGI was 33.9 µM.

What about the TGI [6] of the same compound?
Its TGI is 46.1 µM.

What about the TGI [8] of the same compound?
The TGI was 76.8 µM.

And the TGI [12]?
The TGI was greater than 100 µM.

`BrC1=CN2C[n+]3cc(Br)c4ccccc4c3N=C2c2ccccc21` was tested. Which TGI [1] did it give?
Its TGI is 21.5 µM.

What about the TGI [2] of the same compound?
Its TGI is 6.7 µM.

And the TGI [3]?
Its TGI is 7.14 µM.

What about the TGI [10] of the same compound?
The TGI was 48.1 µM.

And the TGI [11]?
The TGI was 61 µM.

And the TGI [5]?
Its TGI is 29.6 µM.

And the TGI [6]?
Its TGI is 25.7 µM.

What about the TGI [7] of the same compound?
The TGI was 32.1 µM.

And the TGI [8]?
The TGI was 34.2 µM.

What about the TGI [12] of the same compound?
The TGI was 20.9 µM.

What about the TGI [13] of the same compound?
Its TGI is 12.8 µM.
